# Columns and labels:
# [1] = log P by HPLC on reversed-phase column (C 18), EEC Directive 79/831 Annex V.A8; type: physicochemical; details: C 18 reversed phase, 40° C., 0.1% aqueous formic acid and acetonitrile gradient
# Experimental: In table 1, the log P values were determined in accordance with EEC Directive 79/831 Annex V.A8 by HPLC (High Performance Liquid Chromatography) on a reversed-phase column (C 18), using the method described below: Temperature: 40° C.; Mobile phases: 0.1% aqueous formic acid and acetonitrile; linear gradient from 10% acetonitrile to 90% acetonitrile. Calibration was carried out using unbranched alkan-2-ones (comprising 3 to 16 carbon atoms) with known log P values (determination of the log P values by the retention times using linear interpolation between two successive alkanones). lambda-max-values were determined using UV-spectra from 200 nm to 400 nm and the peak values of the chromatographic signals.
# Alternaria solani = assay: In vivo preventive test on Alternaria solani (tomato); details: 500 ppm of active ingredient, evaluated 7 days after inoculation
# Experimental: EXAMPLE A: IN VIVO PREVENTIVE TEST ON ALTERNARIA SOLANI (TOMATO) Solvent: 49 parts by weight of N,N-dimethylformamide Emulsifier: 1 part by weight of Alkylarylpolyglycolether To produce a suitable preparation of active compound, 1 part by weight of active compound is mixed with the stated amounts of solvent and emulsifier, and the concentrate is diluted with water to the desired concentration. To test for preventive activity, young plants are sprayed with the preparation of active compound at the stated rate of application. One day after this treatment, the plants are inoculated with an aqueous spore suspension of Alternaria solani. The plants remain for one day in an incubation cabinet at approximately 22° C. and a relative atmospheric humidity of 100%. Then the plants are placed in an incubation cabinet at approximately 20° C. and a relative atmospheric humidity of 96%. The test is evaluated 7 days after the inoculation. 0% means an efficacy which corresponds to that of the control while an efficacy of 100% means that no disease is observed. Under these conditions, good (at least 80%) to total protection is observed at a dose of 500 ppm of active ingredient with the following compounds from table A: […]
# Leptosphaeria nodorum = assay: In vivo preventive test on Leptosphaeria nodorum (wheat); details: 500 ppm of active ingredient, evaluated 8 days after inoculation
# Experimental: EXAMPLE D: IN VIVO PREVENTIVE TEST ON LEPTOSPHAERIA NODORUM (WHEAT) Solvent: 49 parts by weight of N,N-dimethylacetamide Emulsifier: 1 part by weight of alkylaryl polyglycol ether To produce a suitable preparation of active compound, 1 part by weight of active compound or the compound combination is mixed with the stated amounts of solvent and emulsifier, and the concentrate is diluted with water to the desired concentration. To test for protective activity, young plants are sprayed with a preparation of active compound or active compound combination at the stated rate of application. After the spray coating has dried on, the plants are sprayed with a spore suspension of Leptosphaeria nodorum. The plants remain for 48 hours in an incubation cabinet at 20° C. and a relative atmospheric humidity of 100%. The plants are placed in a greenhouse at a temperature of approximately 22° C. and a relative atmospheric humidity of approximately 80%. The test is evaluated 8 days after the inoculation. 0% means an efficacy which corresponds to that of the control, while an efficacy of 100% means that no disease is observed. Under these conditions, good (at least 75%) to total protection is observed at a dose of 500 ppm of active ingredient with the following compounds from table D: Under the same conditions, excellent protection (greater than 94%) is observed at a dose of 500 ppm of active ingredient with compound 2, whereas poor protection (less than 30%) is observed with the isosteric analogue compound CMP1 claimed in WO-2009/016218 as in table D2.
# Pyrenophora teres = assay: In vivo preventive test on Pyrenophora teres (barley); details: 500 ppm of active ingredient, evaluated 7-9 days after inoculation
# Experimental: EXAMPLE F: IN VIVO PREVENTIVE TEST ON PYRENOPHORA TERES (BARLEY) Solvent: 49 parts by weight of N,N-dimethylformamide Emulsifier: 1 part by weight of Alkylarylpolyglycolether To produce a suitable preparation of active compound, 1 part by weight of active compound is mixed with the stated amounts of solvent and emulsifier, and the concentrate is diluted with water to the desired concentration. To test for preventive activity, young plants are sprayed with the preparation of active compound at the stated rate of application. One day after this treatment, the plants are inoculated with an aqueous spore suspension of Pyrenophora teres. The plants remain for 48 hours in an incubation cabinet at 22° C. and a relative atmospheric humidity of 100%. Then the plants are placed in a greenhouse at a temperature of approximately 20° C. and a relative atmospheric humidity of approximately 80%. The test is evaluated 7-9 days after the inoculation. 0% means an efficacy which corresponds to that of the untreated control while an efficacy of 100% means that no disease is observed. Under these conditions, high (at least 90%) to total protection is observed at a dose of 500 ppm of active ingredient with the following compounds from table F: […]
# Sphaerotheca fuliginea = assay: In vivo preventive test on Sphaerotheca fuliginea (cucumbers); details: 500 ppm of active ingredient, evaluated 7 days after inoculation
# Experimental: EXAMPLE H: IN VIVO PREVENTIVE TEST ON SPHAEROTHECA FULIGINEA (CUCUMBERS) Solvent: 24.5 parts by weight of acetone • 24.5 parts by weight of N,N-dimethylacetamide Emulsifier: 1 part by weight of alkylaryl polyglycol ether To produce a suitable preparation of active compound, 1 part by weight of active compound is mixed with the stated amounts of solvent and emulsifier, and the concentrate is diluted with water to the desired concentration. To test for protect activity, young plants are sprayed with the preparation of active compound at the stated rate of application. After the spray coating has dried on, the plants are inoculated with an aqueous spore suspension of Sphaerotheca fuliginea. The plants are then placed in a greenhouse at approximately 23° C. and a relative atmospheric humidity of approximately 70%. The test is evaluated 7 days after the inoculation. 0% means an efficacy which corresponds to that of the untreated control, while an efficacy of 100% means that no disease is observed. Under these conditions, high (at least 90%) to total protection is observed at a dose of 100 ppm of active ingredient with the following compounds from table H: Under the same conditions, high protection (greater than 80%) is observed at a dose of 500 ppm of active ingredient with compound 7, whereas poor protection (less than 20%) is observed with the isosteric analogue compound CMP2 claimed in WO-2009/016218 as in table H2.
logP [1],SMILES,Efficacy (Alternaria solani),Efficacy (Leptosphaeria nodorum),Efficacy (Leptosphaeria nodorum; listed as compound 2),Efficacy (Pyrenophora teres),Efficacy (Sphaerotheca fuliginea),Efficacy (Sphaerotheca fuliginea; listed as compound 7)
3.35,Cn1nc(C(F)F)c(C(=O)N(C2CC2)C2Cc3ccccc3C2)c1Cl [Example 1],89%,–,–,–,–,–
3.19,Cn1nc(C(F)F)c(C(=O)N(C2CC2)C2Cc3ccccc3C2)c1F [Example 2],94%,94%,greater than 94%,–,–,–
4.01,Cc1cc(C(=O)N(C2CC2)C2CCc3ccccc3C2)c(C)o1 (stereo not drawn) [Example 3],–,–,–,–,–,–
3.00,Cc1nn(C)c(F)c1C(=O)N(C1CC1)C1CCc2ccccc2C1 (stereo not drawn) [Example 4],–,–,–,90%,–,–
3.35,CCc1nn(C)c(F)c1C(=O)N(C1CC1)C1CCc2ccccc2C1 (stereo not drawn) [Example 5],95%,78%,–,95%,–,–
3.08,Cn1cc(C(=O)N(C2CC2)C2CCc3ccccc3C2)c(C(F)F)n1 (stereo not drawn) [Example 6],95%,–,–,100%,–,–
3.48,Cn1nc(C(F)F)c(C(=O)N(C2CC2)C2CCc3ccccc3C2)c1F (stereo not drawn) [Example 7],100%,94%,–,100%,80%,greater than 80%
3.73,Cn1cc(C(=S)N(C2CC2)C2CCc3ccccc3C2)c(C(F)F)n1 (stereo not drawn) [Example 8],–,–,–,95%,–,–
4.21,Cn1nc(C(F)F)c(C(=S)N(C2CC2)C2CCc3ccccc3C2)c1F (stereo not drawn) [Example 9],93%,–,–,100%,–,–
4.34,Cc1cc(C(=O)N(C2CC2)C(C)C2Cc3ccccc3C2)c(C)o1 (stereo not drawn) [Example 10],95%,–,–,90%,–,–
4.82,CC(C1CCc2ccccc2C1)N(C(=O)c1ccsc1I)C1CC1 (stereo not drawn) [Example 15],–,–,–,–,–,–
2.54,Cn1cc(C(=O)N(CC2Cc3ccccc3O2)C2CC2)c(C(F)F)n1 (stereo not drawn) [Example 18],–,–,–,95%,–,–
2.86,Cn1nc(C(F)F)c(C(=O)N(CC2Cc3ccccc3O2)C2CC2)c1F (stereo not drawn) [Example 19],–,–,–,100%,–,–
3.00,Cn1nc(C(F)F)c(C(=O)N(CC2COc3ccccc3C2)C2CC2)c1F (stereo not drawn) [Example 20],80%,–,–,100%,–,–
3.04,Cn1nc(C(F)F)c(C(=O)N(CC2Cc3ccccc3O2)C2CC2)c1Cl (stereo not drawn) [Example 21],–,–,–,–,–,–

# Source: patent US10093611B2, “Benzocycloalkenes as antifungal agents” (Bayer Intellectual Property GmbH, priority 2010, dated 2018)
